Measurements: ChEMBL document CHEMBL1201862, “PubChem BioAssay data set” (2004)
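Where inhibition never reached the appropriate level, the endpoint shown equals the highest concentration tested. Otherwise, values were interpolated linearly from a five-concentration, 48-hour dose response in 96-well plates. At the GI50, growth is halved.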 The source made the active and inactive calls. Cut-off read from the data, not from the text of the source: active = GI50 up to about 1.1 µM and inactive = higher.

How the values were obtained:
Experiment in all cases: NCI anticancer screen, dose series, 48 h
OVCAR-8 = test system: OVCAR-8
K562 = test system: K562
M14 = test system: M14
PC-3 = test system: PC-3
MDA-MB-231 = test system: MDA-MB-231
IGROV-1 = test system: IGROV-1
CCRF-CEM = test system: CCRF-CEM
NCI/ADR-RES = test system: NCI/ADR-RES
EKVX = test system: EKVX
SK-MEL-28 = test system: SK-MEL-28
HCT-116 = test system: HCT-116
COLO 205 = test system: COLO 205
UACC-257 = test system: UACC-257
SR = test system: SR
SK-OV-3 = test system: SK-OV-3
RXF 393 = test system: RXF 393
HCT-15 = test system: HCT-15
LOX IMVI = test system: LOX IMVI
Malme-3M = test system: Malme-3M
ACHN = test system: ACHN

Compound | GI50 (OVCAR-8) | GI50 (K562) | GI50 (M14) | GI50 (PC-3) | GI50 (MDA-MB-231) | GI50 (IGROV-1) | GI50 (CCRF-CEM) | GI50 (NCI/ADR-RES) | GI50 (EKVX) | GI50 (SK-MEL-28) | GI50 (HCT-116) | GI50 (COLO 205) | GI50 (UACC-257) | GI50 (SR) | GI50 (SK-OV-3) | GI50 (RXF 393) | GI50 (HCT-15) [µM] | GI50 (LOX IMVI) | GI50 (Malme-3M) | GI50 (ACHN)
Oc1ccc(Cl)cc1C1=NC(/N=C\c2ccccc2)=NC(c2ccccc2)C1 (configuration not stated) | 20 µM (inactive) | > 100 µM (inactive) | > 100 µM (inactive) | > 100 µM (inactive) | 35.6 µM (inactive) | 7.01 µM (inactive) | > 100 µM (inactive) | 21.4 µM (inactive) | > 100 µM (inactive) | > 100 µM (inactive) | 5.94 µM (inactive) | > 100 µM (inactive) | > 100 µM (inactive) | 5.5 µM (inactive) | 16.3 µM (inactive) | 66.1 µM (inactive) | – | – | – | –
C=CCOC1OC(CS(=O)(=O)O)C(O)C(O)C1O (configuration not stated) | > 100 µM (inactive) | 27 µM (inactive) | > 100 µM (inactive) | > 100 µM (inactive) | > 100 µM (inactive) | > 100 µM (inactive) | > 10 µM (inactive) | > 100 µM (inactive) | – | > 100 µM (inactive) | > 100 µM (inactive) | > 100 µM (inactive) | > 100 µM (inactive) | > 100 µM (inactive) | > 100 µM (inactive) | > 100 µM (inactive) | > 100 | > 100 µM (inactive) | > 100 µM (inactive) | –
Cc1cc2c(cc1-c1cc3c(cc1C)C(C(C)C)=C(O)C(=O)/C3=C\Nc1nc(-c3ccccc3)cs1)/C(=C/Nc1nc(-c3ccccc3)cs1)C(=O)C(O)=C2C(C)C | 25.6 µM (inactive) | 11.7 µM (inactive) | 12.9 µM (inactive) | 15.7 µM (inactive) | 10.8 µM (inactive) | 16.8 µM (inactive) | 12.6 µM (inactive) | 26.1 µM (inactive) | 18.2 µM (inactive) | 16.8 µM (inactive) | 8.61 µM (inactive) | 31.6 µM (inactive) | 21.8 µM (inactive) | 32.5 µM (inactive) | 21.1 µM (inactive) | 15.3 µM (inactive) | 25.4 | – | 33.8 µM (inactive) | 14.9 µM (inactive)
O=C(O)c1cccc2c1/C(=N/Nc1ccccc1)CC2 | > 100 µM (inactive) | > 100 µM (inactive) | 16.6 µM (inactive) | > 100 µM (inactive) | > 100 µM (inactive) | > 100 µM (inactive) | > 100 µM (inactive) | > 100 µM (inactive) | > 100 µM (inactive) | > 100 µM (inactive) | > 100 µM (inactive) | – | 65.9 µM (inactive) | > 100 µM (inactive) | > 100 µM (inactive) | > 100 µM (inactive) | > 100 | > 100 µM (inactive) | – | > 100 µM (inactive)
C/C=C(/C)C(=O)O[C@H]1[C@H]2[C@@H]([C@@H](OC(C)=O)[C@H](C)C(=O)[C@@]34C[C@@H](C)C(=O)[C@]3(/C=C(\C)[C@H]1OC(C)=O)O4)C2(C)C | 3.48 µM (inactive) | 2.6 µM (inactive) | 2.47 µM (inactive) | 3.45 µM (inactive) | 3.72 µM (inactive) | 4.5 µM (inactive) | 0.463 µM (active) | 4.12 µM (inactive) | 3.83 µM (inactive) | – | 3.1 µM (inactive) | 2.6 µM (inactive) | 4.09 µM (inactive) | 2.54 µM (inactive) | 16 µM (inactive) | 3.6 µM (inactive) | 3 | 3.09 µM (inactive) | – | 3.8 µM (inactive)
O=C1NN=C2C=C(c3ccc(Cl)cc3)CC(c3cccc(Br)c3)C12 (configuration not stated) | > 100 µM (inactive) | 32.9 µM (inactive) | > 100 µM (inactive) | 53.7 µM (inactive) | 30.4 µM (inactive) | 51.3 µM (inactive) | 22 µM (inactive) | > 100 µM (inactive) | 47.5 µM (inactive) | – | 64.9 µM (inactive) | > 100 µM (inactive) | 22.4 µM (inactive) | 38.3 µM (inactive) | > 100 µM (inactive) | 62.8 µM (inactive) | 19.3 | 46.9 µM (inactive) | > 100 µM (inactive) | 33.7 µM (inactive)
COC(=O)C1=C(O)CCCC(C2CCCCC(=O)C2C(=O)OC)=C1 (configuration not stated) | 45.5 µM (inactive) | 64.3 µM (inactive) | > 100 µM (inactive) | 63.4 µM (inactive) | 46.5 µM (inactive) | 36.8 µM (inactive) | 20.8 µM (inactive) | > 100 µM (inactive) | 67.3 µM (inactive) | > 100 µM (inactive) | 36.1 µM (inactive) | 83.4 µM (inactive) | 52.1 µM (inactive) | 24.7 µM (inactive) | 76.7 µM (inactive) | 90.2 µM (inactive) | 87.5 | 25.6 µM (inactive) | – | 37.2 µM (inactive)
CC1=NN(C(=O)CSc2nc3ccc(I)cc3c(=O)n2Cc2ccccc2)C(=O)C1 | 48.8 µM (inactive) | 23.8 µM (inactive) | 31.7 µM (inactive) | 17.2 µM (inactive) | 16.9 µM (inactive) | 28.8 µM (inactive) | 27.9 µM (inactive) | 20.9 µM (inactive) | 23.6 µM (inactive) | 57.3 µM (inactive) | 29.9 µM (inactive) | 33.5 µM (inactive) | 34 µM (inactive) | 16.9 µM (inactive) | 29.1 µM (inactive) | 25.9 µM (inactive) | 21.5 | 16.4 µM (inactive) | – | 28.8 µM (inactive)
Cc1cc2c(cc1C)NC1=C(O)C(c3c[nH]c4ccc(COc5ccccc5)cc34)OC1=N2 (configuration not stated) | 43.9 µM (inactive) | > 100 µM (inactive) | > 100 µM (inactive) | > 100 µM (inactive) | 22.3 µM (inactive) | 60.8 µM (inactive) | – | > 100 µM (inactive) | 37.8 µM (inactive) | > 100 µM (inactive) | 96.8 µM (inactive) | > 100 µM (inactive) | 50 µM (inactive) | 65.9 µM (inactive) | 33.6 µM (inactive) | 39.6 µM (inactive) | > 100 | > 100 µM (inactive) | > 100 µM (inactive) | 45.7 µM (inactive)
O=C1/C(=C/c2cccc([N+](=O)[O-])c2)N=C(c2ccccc2)N1c1nc2c(Cl)cc(Cl)cc2s1 | 22 µM (inactive) | 31.1 µM (inactive) | 21.8 µM (inactive) | 24 µM (inactive) | 29.4 µM (inactive) | 23.2 µM (inactive) | 10.4 µM (inactive) | 28.4 µM (inactive) | 15.5 µM (inactive) | 40.7 µM (inactive) | 19.5 µM (inactive) | 31.8 µM (inactive) | 30.1 µM (inactive) | 16.8 µM (inactive) | 31.2 µM (inactive) | 27.9 µM (inactive) | 29.3 | 16.4 µM (inactive) | – | 27.7 µM (inactive)
N/C(S)=N/N=C/c1cc(CN2CCOCC2)c(N)cn1 | 18.5 µM (inactive) | 89.5 µM (inactive) | 18.7 µM (inactive) | 56.9 µM (inactive) | 48.1 µM (inactive) | 50.5 µM (inactive) | 40.1 µM (inactive) | 31 µM (inactive) | 63.1 µM (inactive) | – | 61.8 µM (inactive) | 26.8 µM (inactive) | 28.6 µM (inactive) | 44.4 µM (inactive) | 53 µM (inactive) | > 100 µM (inactive) | 15 | 29.9 µM (inactive) | 31.3 µM (inactive) | 14.1 µM (inactive)
CC1=NN(c2cccc(Cl)c2)C2(SCC(=O)N2c2nc3ccccc3s2)C1=CC=Cc1ccccc1 (configuration not stated) | 35.6 µM (inactive) | 13.3 µM (inactive) | 32.1 µM (inactive) | 29.7 µM (inactive) | 27.9 µM (inactive) | 31.3 µM (inactive) | 3.4 µM (inactive) | 34.8 µM (inactive) | 54.2 µM (inactive) | 34.4 µM (inactive) | 22.6 µM (inactive) | – | 36.9 µM (inactive) | 16.4 µM (inactive) | 27.4 µM (inactive) | 25.5 µM (inactive) | 29.2 | 35.3 µM (inactive) | – | 22.3 µM (inactive)
CC1=CC(O)(c2ccccc2)C(N2CCOCC2)N1O (configuration not stated) | > 100 µM (inactive) | > 100 µM (inactive) | > 100 µM (inactive) | > 100 µM (inactive) | > 100 µM (inactive) | > 100 µM (inactive) | 91.4 µM (inactive) | > 100 µM (inactive) | > 100 µM (inactive) | > 100 µM (inactive) | > 100 µM (inactive) | > 100 µM (inactive) | > 100 µM (inactive) | > 100 µM (inactive) | > 100 µM (inactive) | – | > 100 | > 100 µM (inactive) | > 100 µM (inactive) | > 100 µM (inactive)
Cc1n[nH]c(=O)n1/N=C/c1cccnc1 | > 100 µM (inactive) | > 100 µM (inactive) | > 100 µM (inactive) | > 100 µM (inactive) | > 100 µM (inactive) | > 100 µM (inactive) | > 100 µM (inactive) | > 100 µM (inactive) | > 100 µM (inactive) | > 100 µM (inactive) | > 100 µM (inactive) | > 100 µM (inactive) | > 100 µM (inactive) | > 100 µM (inactive) | > 100 µM (inactive) | – | > 100 | > 100 µM (inactive) | > 100 µM (inactive) | > 100 µM (inactive)
COc1ccc2c(O)c3[n+](cc2c1OC)CCc1cc2c(cc1-3)OCO2 | > 100 µM (inactive) | 38.5 µM (inactive) | > 100 µM (inactive) | > 100 µM (inactive) | > 100 µM (inactive) | 91.8 µM (inactive) | 52.8 µM (inactive) | > 100 µM (inactive) | > 100 µM (inactive) | – | 41.8 µM (inactive) | > 100 µM (inactive) | > 100 µM (inactive) | 39.3 µM (inactive) | > 100 µM (inactive) | 25.4 µM (inactive) | 84.3 | 69 µM (inactive) | – | > 100 µM (inactive)
